The nature of series [1]: RP, Waters ACQUITY UPLC BEH C18, 100 × 1 mm, 1.7 µm, 50 °C, 0.3 mL/min, estimated dead time 0.17 min; A: water + 10 mM ammonium bicarbonate; B: 10% water + 90% methanol + 10 mM ammonium bicarbonate; gradient (min/%B) 0/0 15/100 21/100 22/0 30/0. The conditions noted are these: stereoisomer not certain.
Series [2] is described as follows: RP, Waters ACQUITY UPLC BEH C18, 100 × 1 mm, 1.7 µm, 50 °C, 0.3 mL/min, estimated dead time 0.17 min; A: water + 0.1% formic acid + 20 mM ammonium formate; B: methanol + 0.1% formic acid + 20 mM ammonium formate; gradient (min/%B) 0/0 15/100 21/100 22/0 30/0. The conditions noted are these: stereoisomer not certain.

The values below come from the RepoRT retention time repository (doi:10.1021/acs.analchem.1c00972).

As to `O=C1Nc2ccc(Cl)cc2C(C#CC2CC2)(C(F)(F)F)O1` (centres undefined) [Efavirenz], the LC retention time in series [1] was 15.8 min; in series [2] it was 15.5 min.

Consider `N#CC1CCCN1C(=O)CNC12CC3CC(CC(O)(C3)C1)C2` (centres undefined) [Vildagliptin], for which the results for the LC retention time in series [1] and in series [2] were 10.1 min and 6.31 min, respectively.

With `Cc1cc(=O)oc2cc(N)ccc12` [7-Amino-4-methylcoumarin], the LC retention time is 9.4 min in series [1] and 9.29 min in series [2].

For the molecule `CC=C1CC(C)C(C)(O)C(=O)OCC2=CC[N+]3([O-])CCC(OC1=O)C23` (centres undefined) [Senecionine N-oxide], the figures for the LC retention time in series [1] and in series [2] were 9.78 min and 8.82 min, respectively.

In the case of `COCCOCCOCCO` [2-(2-(2-Methoxyethoxy)ethoxy)ethanol], the LC retention time in series [1] is 6.68 min; in series [2], 6.67 min.

`CC(=O)OC1(C(C)=O)CCC2C3C=C(C)C4=CC(=O)CCC4(C)C3CCC21C` (centres undefined) [Megestrol-17-acetate]: the LC retention time in series [1] is 15.6 min; in series [2] it was 15.3 min.

Consider `CNCCC(Oc1cccc2ccccc12)c1cccs1` (centres undefined) [Duloxetine], for which the results for the LC retention time in series [1] and in series [2] were 15.4 min and 13.2 min, respectively.

In the case of `c1ccc(-c2ccc(C(c3ccccc3)n3ccnc3)cc2)cc1` (centres undefined) [Bifonazol], the LC retention time in series [1] was 16.7 min; in series [2] it was 13.9 min.

Consider `CC(=O)OC1CCN2CC=C(COC(=O)C(O)(C(C)C)C(C)O)C12` (centres undefined) [7-Acetyllycopsamine], for which the LC retention time is 11.8 min in series [1] and 8.13 min in series [2].

Turning to `CCOP(=O)(SC(C)CC)N1CCSC1=O` (centres undefined) [Fosthiazate], the LC retention time is 12.8 min in series [1] and 12.6 min in series [2].

With `CCNc1nc(NCC)[nH]c(=O)n1` [Simazine 2-Hydroxy], the LC retention time is 9.04 min in series [1] and 7.39 min in series [2].

With `CCCOc1nn(C(=O)NS(=O)(=O)c2ccccc2C(=O)OC)c(=O)n1C` [Propoxycarbazone], the LC retention time is 9.89 min in series [1] and 11.8 min in series [2].

Regarding `CC1=CC2OC3C(O)C(O)C(C)(C34CO4)C2(CO)C(O)C1=O` (centres undefined) [Nivalenol], the LC retention time is 5.94 min in series [1] and 5.87 min in series [2].

With `Nc1nc(=O)n(C2CSC(CO)O2)cc1F` (centres undefined) [Emtricitabine], the figures for the LC retention time in series [1] and in series [2] were 5.99 min and 5.75 min, respectively.

For the molecule `CC(=O)OC1C(C)OC(n2cc(F)c(N)nc2=O)C1OC(C)=O` (centres undefined) [2',3'-Di-O-acetyl-5'-deoxy-5-fluorocytidine], the values for the LC retention time in series [1] and in series [2] were 9.61 min and 9.43 min, respectively.

For `CC(=O)Nc1ccc(N)cc1` [4'-Aminoacetanilide], the values for the LC retention time in series [1] and in series [2] were 4.75 min and 8.1 min, respectively.

With `CC=C(C)C(=O)OC1CCN2CC=C(COC(=O)C(O)(C(C)OC)C(C)(C)O)C12` (centres undefined) [Lasiocarpine], the LC retention time in series [1] was 13.9 min; in series [2] it was 10.4 min.

In the case of `COC(=O)C1C(O)CCC2CN3CCc4c([nH]c5ccccc45)C3CC21` (centres undefined) [Yohimbine], the LC retention time is 14.1 min in series [1] and 9.26 min in series [2].

Turning to `CCCCCCCCCOC(=O)c1ccccc1C(=O)OCCCCCCCCC` [Dinonylphthalate], the LC retention time in series [1] is 20.5 min; in series [2] it was 19.7 min.

Consider `O=C1CCCCCN1` [epsilon-Caprolactam], for which the LC retention time in series [1] is 7 min; in series [2], 6.99 min.

As to `COC(=O)c1ccccc1S(=O)(=O)NC(=O)N(C)c1nc(C)nc(OC)n1` [Tribenuron-methyl], the LC retention time in series [1] was 9.4 min; in series [2], 12.8 min.

Take `Cc1ccc(S(=O)(=O)O)c(C)c1` [m-Xylene-4-sulfonic acid]: the values for the LC retention time in series [1] and in series [2] were 7.83 min and 7.92 min, respectively.

As for `Cc1ccc(NS(=O)(=O)N(C)C)cc1` [DMST], the figures for the LC retention time in series [1] and in series [2] were 12.1 min and 12 min, respectively.

Consider `CC12CCC3C(CCC4(O)CC(O)CCC34C=O)C1(O)CCC2C1=CC(=O)OC1` (centres undefined) [Strophanthidin], for which the LC retention time in series [1] is 11.3 min; in series [2], 11 min.

Regarding `CCOC(=O)c1ccc(N)cc1` [Benzocain], the LC retention time was 10.8 min in series [1] and 10.5 min in series [2].

As for `CCCCCCCCCCS(=O)(=O)O` [1-Decanesulfonic acid], the LC retention time in series [1] was 14.7 min; in series [2], 15.1 min.

For `CCCCC(CC)COC(=O)C(C#N)=C(c1ccccc1)c1ccccc1` (centres undefined) [Octocrylene], the figures for the LC retention time in series [1] and in series [2] were 18.2 min and 17.8 min, respectively.

Regarding `Cc1cc(C)nc(NC(=O)NS(=O)(=O)c2ccccc2C(=O)OC2COC2)n1` [Oxasulfuron], the figures for the LC retention time in series [1] and in series [2] were 9.07 min and 11.3 min, respectively.

For the molecule `O=C1Nc2ccc(Cl)cc2C(c2ccccc2)=NC1O` (centres undefined) [Oxazepam], the values for the LC retention time in series [1] and in series [2] were 13.5 min and 13.2 min, respectively.

Consider `CN1Cc2c(ccc3c2OCO3)C2C(O)Cc3cc4c(cc3C21)OCO4` (single isomer, unassigned; (+)) [(+)-Chelidonine], for which the LC retention time was 15.3 min in series [1] and 9.34 min in series [2].

Turning to `OC(Cn1cncn1)(Cn1cncn1)c1ccc(F)cc1F` [fluconazole], the figures for the LC retention time in series [1] and in series [2] were 9.58 min and 9.47 min, respectively.

Turning to `Cc1ncc2n1-c1ccc(Cl)cc1C(c1ccccc1F)=NC2` [Midazolam], the values for the LC retention time in series [1] and in series [2] were 14.6 min and 11.4 min, respectively.

On to `CC1C(=O)OC2CCN3CC=C(COC(=O)C(C)(O)C1(C)O)C23` (centres undefined) [Monocrotaline], for which the LC retention time in series [1] was 8.97 min; in series [2], 5.17 min.

Take `Clc1ccccc1-c1nnc(-c2ccccc2Cl)nn1` [Clofentezine (Apolo)]: the LC retention time in series [1] was 16.3 min; in series [2], 15.9 min.

Turning to `CC(C)OC(=O)C(C)(C)Oc1ccc(C(=O)c2ccc(Cl)cc2)cc1` [Fenofibrate], the figures for the LC retention time in series [1] and in series [2] were 17.3 min and 17 min, respectively.

`CCOC(=O)C1(c2ccccc2)CCN(C)CC1` [Meperidine]: the figures for the LC retention time in series [1] and in series [2] were 14.2 min and 9.63 min, respectively.

`CC(CCc1ccccc1)NCC(O)c1ccc(O)c(C(N)=O)c1` (centres undefined) [Labetalol]: the LC retention time in series [1] was 12.8 min; in series [2], 10.6 min.

In the case of `O=C(O)COCCN1CCN(C(c2ccccc2)c2ccc(Cl)cc2)CC1` (centres undefined) [Cetirizine], the results for the LC retention time in series [1] and in series [2] were 14.8 min and 13.6 min, respectively.

Turning to `Nc1c(Br)cc(Br)cc1CNC1CCC(O)CC1` (centres undefined) [Ambroxol], the LC retention time is 15.4 min in series [1] and 10.6 min in series [2].

Regarding `CCCCOC(=O)N(C)SN(C)C(=O)Oc1cccc2c1OC(C)(C)C2` [Furathiocarb], the LC retention time in series [1] is 17.1 min; in series [2] it was 16.7 min.

Consider `Oc1ccc(C(c2ccc(O)cc2)(C(F)(F)F)C(F)(F)F)cc1` [Bisphenol AF], for which the LC retention time was 14.7 min in series [1] and 15.9 min in series [2].

As for `C=C1CCC2C(C=C(C)C(=O)C3(O)CC(C)C(O)C3C1O)C2(C)C` (centres undefined) [Lathyrol], the LC retention time in series [1] is 15 min; in series [2] it was 14.7 min.
